Measured values as given in PMC3933693, “Novel Inhibitors of Mitochondrial sn-Glycerol 3-phosphate Dehydrogenase” (PLoS ONE, 2014).
“And” between values parts separate entries of the source, which are not always exact repeats. Identical values can stand only once.

Tests used:
[1] = system: skeletal muscle mitochondria; assay: Mitochondrial membrane potential (ΔΨm, TMRM) powered by glycerol phosphate; assay type: biochemical, rat
[2] = biological target: T1, mGPDH (Rattus norvegicus, UniProt P35571); assay: mGPDH enzymatic activity (DCPIP-linked reduction by glycerol phosphate) in frozen-thawed skeletal muscle mitochondria; assay type: biochemical
T1 construct: from tissue; host or cells: skeletal muscle mitochondria
T1 sequence (P35571 43-727): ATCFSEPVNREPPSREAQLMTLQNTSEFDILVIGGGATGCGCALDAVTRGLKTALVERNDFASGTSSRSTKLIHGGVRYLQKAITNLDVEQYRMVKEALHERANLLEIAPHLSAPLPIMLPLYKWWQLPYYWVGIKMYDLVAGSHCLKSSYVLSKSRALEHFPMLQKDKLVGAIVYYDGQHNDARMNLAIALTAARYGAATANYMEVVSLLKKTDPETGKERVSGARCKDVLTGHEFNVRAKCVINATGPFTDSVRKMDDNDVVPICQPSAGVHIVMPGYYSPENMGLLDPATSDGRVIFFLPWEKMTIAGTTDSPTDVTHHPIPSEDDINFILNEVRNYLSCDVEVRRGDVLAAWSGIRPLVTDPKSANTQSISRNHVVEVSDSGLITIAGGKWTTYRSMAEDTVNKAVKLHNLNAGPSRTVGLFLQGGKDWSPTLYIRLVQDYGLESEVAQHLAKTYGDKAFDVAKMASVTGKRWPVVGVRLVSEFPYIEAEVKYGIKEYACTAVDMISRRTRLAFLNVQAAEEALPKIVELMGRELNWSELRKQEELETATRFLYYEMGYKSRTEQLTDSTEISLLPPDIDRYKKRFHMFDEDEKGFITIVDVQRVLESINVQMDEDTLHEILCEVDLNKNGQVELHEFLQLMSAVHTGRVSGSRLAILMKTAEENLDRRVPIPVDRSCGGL
Description: Activity of mGPDH in frozen-thawed skeletal muscle mitochondria was measured as 2,6-dichlorophenolindophenol (DCPIP)-linked reduction by glycerol phosphate as described previously in the presence of 1 µM free calcium. Linear rates of change in absorbance (λ = 600 nm) were measured on the PHERAstar microplate reader and converted to rates of DCPIP reduction using an extinction coefficient of 21 mM^−1 ⋅ cm^−1 and a calculated pathlength of 0.6 cm. Kinetic parameters and inhibitor constants were determined by co-varying glycerol phosphate and novel inhibitors according to recommended procedures and calculated for each data set using GraphPad Prism. Vmax and Km were determined using hyperbolic curves fit to the Michaelis-Menten equation: rate = (Vmax ⋅ [substrate]) ⋅ (K m+[substrate])^ −1. Hill Slope and IC50 were determined using unconstrained, sigmoidal dose-response curve fits of % remaining activity against concentration of iGP. K ic and K iu were determined using plots of rate^−1 vs iGP and GP ⋅ rate^−1 vs iGP, respectively. Linear regression analysis yielded an average x-coordinate at which the best-fit lines intersect. These x-coordinates correspond to -K ic and -K iu in their respective plots. The apparent Vmax of mGPDH is dependent upon the concentration of DCPIP used, [38]. Therefore, to determine the maximal activity of mGPDH in isolated synaptosomes, DCPIP was replaced by 1 mM potassium ferricyanide and linear rates of change in absorbance (λ = 420 nm) were converted to rates of ferricyanide reduction using an extinction coefficient of 1.04 mM^−1 ⋅ cm^−1 and a calculated pathlength of 0.6 cm.

- mGPDH Activity Hill Slope ([2]; 1 µM free calcium): 0.92 and 0.92±0.08
- IC50 ([2]; 1 µM free calcium, Fig. 9A): 6.3 ± 0.7 µM
- effect on mGPDH enzymatic activity ([2]; all concentrations tested, Fig. 5): significantly inhibited
- K iu (uncompetitive inhibitor dissociation constant) ([2]; co-varying glycerol phosphate and inhibitor): 14.6 ± 1.5 µM
- Ki ([2]; co-varying glycerol phosphate and inhibitor, read-out: K ic (competitive inhibitor dissociation constant)): 9.5 ± 1.1 µM
SMILES: O=C(O)CCC(=O)Nc1ccc(-c2nc3ccccc3[nH]2)cc1 [iGP-1]
- ΔΨm with GP + Nig (% change at 80 μM) ([1]; 80 μM, 16.7 mM glycerol phosphate, 4 µM rotenone, nigericin): -20%
- effect on ΔΨm powered by glycerol phosphate ([1]; 8, 25, and 80 µM): significantly decreased
